How the values were obtained:
[1] = biological target: full-length human recombinant IDO1 protein (Homo sapiens (Human), UniProt P14902); experiment: IDO enzyme activity inhibition testing (Ehrlich method); assay type: biochemical; details: OD490, 10 concentration points
Procedure: IDO Enzyme Activity Inhibition Testing
The effects of the compounds of the invention on the activity of indoleamine 2,3-dioxygenase (IDO) were evaluated by the Ehrlich method.
The experimental principle is summarized as follows: IDO1 catalyzes oxidation of tryptophan to form N-formyl kynurenine, N-formyl kynurenine is subsequently hydrolyzed by trichloroacetic acid to form kynurenine, and kynurenine further reacts with the Ehrlich reagent to make the solution yellow. The absorbance at 490 nm (OD490) is directly proportional to the activity of IDO1.
The experimental methods are summarized as follows:
The reaction buffer was 50 mM 2-(N-morpholine)ethanesulfonic acid-hydrate (Sigma, Cat. No. 69889); the full-length human recombinant IDO1 protein was purchased from the Tsinghua Protein Research Technology Center and diluted to a 33.6 ng/μL enzyme solution with the reaction buffer; the substrate solution was prepared with the reaction buffer containing 20 mM vitamin C (Sigma, Cat. No. A5960), 150 μM L-tryptophan (Sigma, Cat. No. T0254), 2250 UI/mL catalase (Sigma, Cat. No. C30), and 10 μM methylene blue (Sigma, Cat. No. 28514); the reaction termination solution was 30% (mass/volume) trichloroacetic acid (Sigma, Cat. No. T9159) aqueous solution; the Ehrlich reagent was 2% p-dimethylaminobenzaldehyde (Sigma, Cat. No. 156477) acetic acid (Macklin, Cat. No. A801295) solution.
A compound was dissolved in DMSO (Sigma, Cat. No. D5879) and diluted to 1 mM, then serially diluted 3-fold with DMSO to a minimum concentration of 50.8 nM, and each concentration was further diluted 25-fold with the reaction buffer. If a compound's IC50 value was very low, the initial concentration of the compound was decreased.
A 10-μL compound solution and a 10-μL enzyme solution were added to a 96-well plate (Sigma, Cat. No. CLS3695), mixed well and incubated at room temperature. After 15 min, a 20-μL substrate solution was added and incubated at 60° C. after mixing for 30 min. The reaction plate was equilibrated to room temperature and 60 μL of the Ehrlich reagent was added. After incubation for 15 min, OD490 of each well was measured.
In this experiment, OD490 without enzyme was referred as OD490100% inhibition, and OD490 with enzyme added but without compound was referred as OD4900% inhibition.
(§1) Where Y is the percentage of inhibition, Bottom is the bottom platform value of the S-curve, Top is the top platform value of the S-curve, X is the logarithm of the concentration of the test compound, and slope factor is the slope coefficient of the curve.

[2] = biological target: indoleamine 2,3-dioxygenase (IDO) in Hela cells (Homo sapiens (Human), UniProt P14902); experiment: IDO intracellular activity inhibition testing in Hela cells induced by IFN-γ (Ehrlich method); assay type: cell-based; details: 24 hours, OD490, 8 concentration points
Sequence of indoleamine 2,3-dioxygenase (IDO) in Hela cells (P14902 whole entry): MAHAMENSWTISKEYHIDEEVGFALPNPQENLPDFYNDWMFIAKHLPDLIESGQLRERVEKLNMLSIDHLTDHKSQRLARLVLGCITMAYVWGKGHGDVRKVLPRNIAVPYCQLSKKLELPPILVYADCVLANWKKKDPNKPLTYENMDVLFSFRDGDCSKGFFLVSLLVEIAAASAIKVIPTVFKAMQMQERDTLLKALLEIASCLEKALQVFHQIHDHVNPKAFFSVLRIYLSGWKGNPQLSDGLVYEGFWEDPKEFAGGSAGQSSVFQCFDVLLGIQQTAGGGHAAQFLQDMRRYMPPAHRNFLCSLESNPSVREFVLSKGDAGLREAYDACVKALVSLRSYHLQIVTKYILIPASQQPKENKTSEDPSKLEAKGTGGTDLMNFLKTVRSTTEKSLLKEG
Procedure: IDO Intracellular Activity Inhibition Testing
The effects of the compounds of the invention on the activity of indoleamine 2,3-dioxygenase (IDO) in Hela cells induced by IFN-γ were evaluated by the Ehrlich method.
The experimental principle is summarized as follows: IDO expression is low in Hela cells under no induction, but a certain concentration of IFN-γ can induces Hela cells to express IDO which catalyzes the conversion of tryptophan to N-formyl kynurenine, which in turn is hydrolyzed by trichloroacetic acid to give kynurenine. Kynurenine then reacts with the Ehrlich reagent to give a color enabling detection of the IDO activity. The absorbance at 490 nm (OD490) is directly proportional to the IDO activity.
A compound was dissolved in DMSO (Sigma, Cat. No. D5879) and diluted to 5 mM, then serially diluted 3-fold with DMSO to a minimum concentration of 2.29 μM, and each concentration point was diluted 50-fold with FBS-free DMEM medium (ThermoFisher, Cat. No. 11995073). If a compound's IC50 value is very low, the initial concentration of the compound was lowered.
Hela cells (ATCC, Cat. No. CCL-2) were cultured in DMEM complete medium containing 10% FBS (GBICO, Cat. No. 10099-141) and 100 U/mL streptomycin mixture (ThermoFisher, Cat. No. 15140122). When covering the culture vessel 80-90%, the cells were digested with 0.25% trypsin (containing EDTA) (ThermoFisher, Cat. No. 25200056) and planted in 96-well plates (Corning, Cat. No. 3599), 20000 cells per well (80 μL of DMEM medium). The plates were then incubated in a 37° C., 5% CO2 incubator overnight (18-20 hours).
After overnight, 10 μL of DMEM-diluted compound and 10 μL of 500 ng/mL of INF-γ were added to each well, and gently mixed and the 96-well plates were placed in a 37° C., 5% CO2 incubator for further culturing. After 24 hours, they were removed and centrifuged at room temperature 2000×g for 5 min, and then the supernatants were transferred to reaction plates (Sigma, Cat. No. CLS3695). One-twentieth of trichloroacetic acid (Sigma, Cat. No. T9159) was added and incubated at 60° C. After 30 min, the reaction plates were centrifuged at room temperature 2000×g for 5 min. The supernatants were transferred to clean reaction plates, an equal volume of the Ehrlich reagent was added, mixed, and incubated at room temperature. After 15 min, OD490 of each well was measured.
In this experiment, OD490 without IFN-γ but with DMEM medium replacement was referred as OD490100% inhibition. OD490 with IFN-γ and 0.2% DMSO was referred as OD4900% inhibition. The percentage of inhibition on the IDO1 activity in Hela cells by a compound was calculated using the following formula: Inhibition %=100−100*(OD490compound−OD490100% inhibition)/(OD4900% inhibition−OD490100% inhibition)
as §1

plasma IDO1 = plasma IDO1 (Mus musculus (Mouse), UniProt P28776); details: nude mice, single dose; at the level of IDO-deficient mice; cited from earlier work
Sequence of plasma IDO1 (P28776 whole entry): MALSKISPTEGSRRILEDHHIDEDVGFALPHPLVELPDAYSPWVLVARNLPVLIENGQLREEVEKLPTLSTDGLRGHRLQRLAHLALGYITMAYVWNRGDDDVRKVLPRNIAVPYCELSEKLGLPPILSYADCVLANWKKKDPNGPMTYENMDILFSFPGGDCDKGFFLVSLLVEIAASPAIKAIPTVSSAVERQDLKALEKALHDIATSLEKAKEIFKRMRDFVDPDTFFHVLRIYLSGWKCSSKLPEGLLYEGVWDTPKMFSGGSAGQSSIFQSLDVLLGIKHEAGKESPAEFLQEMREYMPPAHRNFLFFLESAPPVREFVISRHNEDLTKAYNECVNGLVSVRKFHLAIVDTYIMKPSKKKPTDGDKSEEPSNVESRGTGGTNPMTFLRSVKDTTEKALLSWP

CT26 tumors = details: repeated doses; cited from earlier work

Sequence of full-length human recombinant IDO1 protein (P14902 whole entry): as the sequence (P14902 whole entry) above

Row | SMILES | IC50 [1] [nM] | IC50 [2] [nM] | activity of plasma IDO1 (plasma IDO1) | expansion of CT26 tumors (CT26 tumors)
1 | N#Cc1ccc(NC(=O)Nc2c(-c3ccccc3)ccc3cncn23)cc1 [Compound 17, 1-(4-cyanophenyl)-3-(6-phenylimidazo[1,5-a]pyridin-5-yl)urea] | < 250 | < 1000 |  | 
2 | N#Cc1ccc(NC(=O)Nc2c(-c3cccc(F)c3)ccc3cncn23)cc1 [Compound 22, 1-(4-cyanophenyl)-3-(6-(3-fluorophenyl)imidazo[1,5-a]pyridin-5-yl)urea] | < 250 | < 1000 |  | 
3 | N#Cc1ccc(NC(=O)Nc2c(-c3ccccc3F)ccc3cncn23)cc1 [Compound 23, 1-(4-cyanophenyl)-3-(6-(2-fluorophenyl)imidazo[1,5-a]pyridin-5-yl)urea] | < 250 | < 1000 |  | 
4 | N#Cc1ccc(NC(=O)Nc2c(C3=CCCC3)ccc3cncn23)cc1 [Compound 24, 1-(4-cyanophenyl)-3-(6-(cyclopent-1-en-1-yl)imidazo[1,5-a]pyridin-5-yl)urea] | < 250 | 1000 to 10000 |  | 
5 | O=C(Cc1c(-c2ccccc2)ccc2cncn12)Nc1ccc(-c2cn[nH]c2)cc1 [Compound 51, N-(4-(1H-pyrazol-4-yl)phenyl)-2-(6-phenylimidazo[1,5-a]pyridin-5-yl)acetamide] | < 250 | < 1000 |  | 
6 | O=C(Cc1c(-c2ccccc2)ccc2cncn12)Nc1cn[nH]c1 [Compound 54, 2-(6-phenylimidazo[1,5-a]pyridin-5-yl)-N-(1H-pyrazol-4-yl)acetamide] | 250 to 1500 | 1000 to 10000 |  | 
7 | NS(=O)(=O)NCCNc1nonc1C(=NO)Nc1ccc(F)c(Br)c1 [INCB-024360] |  |  | effectively inhibit the activity of plasma IDO1 | prevented the expansion of CT26 tumors

Further lines, with some results ahead:

Row | IC50 [1] [nM] | IC50 [2] [nM] | SMILES | activity of plasma IDO1 (plasma IDO1) | expansion of CT26 tumors (CT26 tumors)
8 | < 250 | 1000 to 10000 | N#Cc1ccc(NC(=O)Nc2c(Cl)ccc3cncn23)cc1 [Compound 19, 1-(6-chloroimidazo[1,5-a]pyridin-5-yl)-3-(4-cyanophenyl)urea] |  | 
9 | 250 to 1500 | 1000 to 10000 | N#Cc1ccc(NC(=O)Nc2c(-c3ccc(F)cc3)ccc3cncn23)cc1 [Compound 21, 1-(4-cyanophenyl)-3-(6-(4-fluorophenyl)imidazo[1,5-a]pyridin-5-yl)urea] |  | 
10 | < 250 | < 1000 | N#Cc1ccc(NC(=O)Cc2c(-c3ccccc3)ccc3cncn23)cc1 [Compound 37, N-(4-cyanophenyl)-2-(6-phenylimidazo[1,5-a]pyridin-5-yl)acetamide] |  | 
11 | < 250 | < 1000 | O=C(Cc1c(-c2ccccc2)ccc2cncn12)Nc1ccc(C(=O)NCCN2CCOCC2)cc1 [Compound 49, N-(2-morpholinoethyl)-4-(2-(6-phenylimidazo[1,5-a]pyridin-5-yl)acetamido)benzamide] |  | 
12 | < 250 | < 1000 | O=C(Cc1c(-c2ccccc2)ccc2cncn12)Nc1ccc(C(=O)NCCCN2CCOCC2)cc1 [Compound 50, N-(3-morpholinopropyl)-4-(2-(6-phenylimidazo[1,5-a]pyridin-5-yl)acetamido)benzamide] |  | 
13 | < 250 | 1000 to 10000 | O=C(Cc1c(-c2ccccc2)ccc2cncn12)Nc1cc[nH]n1 [Compound 53, 2-(6-phenylimidazo[1,5-a]pyridin-5-yl)-N-(1H-pyrazol-3-yl)acetamide] |  | 

— US11046682B2, “Fused heterocyclic derivatives, their preparation methods thereof and medical uses thereof” (Beijing Innocare Pharma Tech Co., Ltd., priority 2016, dated 2021)
